Patent publication US20090074885A1, “Reversible Hydrophobic Modification of Drugs for Improved Delivery to Cells” (Roche Madison Inc., priority 2003, published 2009)

Legend:
[1] = Analysis of prodrug lability (rate of hydrolysis) of PI derivatives by fluorescent spectroscopy; type: physicochemical; conditions: for Half-life: extrapolated to pure buffer (100 mol % H2O)
Method: Analysis of prodrug lability. The prodrugs were tested for their rate of hydrolysis at pH 6.0, 7.2 and 8.5 using fluorescent spectroscopy. Lability studies for C12CON-PI and RRH-PI (rapidly reversible hydrophobic-PI) derivatives were conducted on a Cary Eclipse Fluorescence Spectrophotometer (Varian Inc.).
To solutions of PI and RRH-prodrugs of PI (7.48 μM in DMSO) were added various amounts of buffer (25 μL, 50 μL, and 100 μL of 20 mM Hepes buffer) at different pH. Upon cleavage of the hydrophobic modification and regeneration of PI, the fluorescence of the solution increased (λex=493 nm, λem=647 nm, excitation and emission slit width=5 nm, and emission PMT=600V) and was assayed as a function of time (20 min).
The resulting curves were normalized for intensity and fit to an exponential equation (Origin) to determine kdetermined for each solution. The kdetermined for each compound at appropriate pH were plotted against the mol % of H2O, and the best fit line was solved for kbuffer for 100 mol % H2O. These derived kbuffer values were used to determine the half-life of the prodrug in pure buffer according to the equation t1/2=1n2/k.

[2] = Qualitative 90° light scattering for particles; type: physicochemical; conditions: relative to ITG or PI in ITG
Method: Light Scattering analysis of prodrugs. Particle size was determined by dynamic light scattering on a Zeta Plus (Zeta Potential Analyzer, Brookhaven Instrument Corporation, λ 533 nm, 90°), and results are reported as the size of the most abundant particle (range of particle sizes, counts sec^−1). Fluorescent compounds were also analyzed for particles qualitatively, by measuring for light scattering on a Cary Eclipse Fluorescence Spectrophotometer (Varian Inc.), with λex=λem (300-800 nm, 90° detection). The presence of particles in solution results in an increase in signal detection at 90°. PI and RRH-PI prodrugs were 7.48 mM in DMSO. Melphalan and V were 50 mM in DMSO. The drug/prodrug solutions were mixed and diluted with ITG through the mixing chamber (40 μl OS and 400 μl ITG), and analyzed immediately.

Jurkat cells = assay: Flow cytometry of prodrug delivery to Jurkat cells; type: cell-based, human
Method: For experiments conducted on Jurkat cells (8.0×10^5 cells/ml in media), the cells were isolated by centrifugation and resuspended in ITG at a density of 4.0×10^6 cells/ml. Exposure to the drug/prodrug was conducted by passing the cells in suspension in ITG (200 μl) through the mixing chamber. After 30 sec the cells were centrifuged and the drug solution was removed (aspirated), the cells were resuspended in complete media (2 ml) and plated in 6-well plates for imaging. Passing the cells through the mixing chamber (no drug/prodrug treatment) had no effect on cell viability when compared to cells plated without passing through the mixing chamber.
Flow cytometry was conducted on a FacsCalibur Flow Cytometer (Becton Dickinson Biosciences). Jurkat cells were isolated and treated with PI and II as previously described. After 4 min the cells were centrifuged and the drug solution was removed (aspirated) and 1 ml complete media was added to the cells. During analysis, PI was added to control cells (1 ml of 8.0×10^5 cells/ml in complete media, 1 drop of 1 mg/ml PI solution, no OS or mixing chamber) to determine normal cell senescence. Data were collected for a total of 10,000 events using Cell Quest™ (Becton Dickinson Biosciences), and analyzed with FlowJo (Tree Star Inc.) for single cell events (approximately 80% of events), and secondly for PI. For Jurkat cells treated with II, forward scatter was analogous to control cells, while side scatter increased approximately two fold. Reported data represents a histogram of PI intensity for single cell events from four independent preparations. Cells were considered PI positive at a value of 100 on the PI intensity axis of the histogram for the cell percentages described.

hepatocytes = assay: Uptake by hepatocytes in vivo after intraportal injection (occluded blood flow); design: species or system mouse; conditions: normal liver, portal vein injection; for cells (hepatocytes) PI positive: 0.300 μmol
Method: Uptake of BDMODS-PI by hepatocytes in vivo. Intraportal injections were conducted in order to target hepatocytes. For the injections, both the portal vein and the celiac artery were clamped to occlude blood flow into the liver. The vena cava was not clamped in order to avoid increased pressure within the liver during the injection procedure. The blood in the liver was flushed out with 1 ml of ITG delivered through the portal vein (1 min). 0.300 μmol PI or II in 40 μl of DMF was then delivered together with 400 μl ITG via the mixing chamber. 5 min after injection the livers were perfused with 3 ml of ITG to flush any drug remaining in the vasculature, and livers were sectioned as above or the hepatocytes were isolated. Slides were prepared from the resulting hepatocyte isolations for examination by fluorescent microscopy (Axioplan2 fluorescent microscope in the fluorescein fluorescent channel (λex=BP 546/90, λem=LP 515 nm filter set) due to signal intensity, magnification=400×, Zeiss) by placing a drop of the cell suspension (about 20 μl) on a clean glass slide and preparing a cell smear. Random fields were examined, and the number of positive cells was counted out of a total of 200 cells in order to determine the percentage of PI positive cells in the sample.
The amount of PI retained in hepatocytes was also quantitated following intraportal injections of PI and II. The isolated hepatocyte cell suspensions were dissolved in 0.5% octyl glycoside in 10 mM HEPES buffer, pH 7.5. Nucleic acid was then isolated from cell suspensions (0.5 ml) using phenol extraction. PI fluorescence spectra were monitored (Shimadzu RF 1501 Spectrophotometer) using an excitation wavelength of 530 nm and an emission wavelength of 617 nm. All spectra were background subtracted using the fluorescence of cell suspensions from untreated animals. PI calibration curves were generated by mixing increasing amounts of PI in each of the samples. […] The amount of PI uptake was then calculated according to the equation: Amt(%)=100×PIs/PIi, where PIs is the amount of PI in the cell suspension and PIi is the amount of PI or BDMOD-PI injected (corrected for the sample size relative to the total liver).

[3] = test system: MC38 metastases and hepatic cells; assay: Portal vein injection in tumor-bearing mice; type: in vivo, mouse
Method: For intraportal injections both the portal vein and the celiac artery were clamped to occlude blood flow into the liver. In other experiments, the portal vein and the celiac artery were not clamped, preserving full portal blood flow during the experiment. In all cases, the vena cava was not clamped in order to avoid increased pressure within the liver during the injection procedure. For experiments with occluded blood flow, the blood in the liver was flushed out with 1 ml of ITG delivered through the portal vein (1 min). Then 0.300 μmol of PI or II in 40 μl of DMF was delivered together with 400 μl of ITG via the mixing chamber. Five min after injection the livers were perfused with 3 ml of ITG to flush any drug remaining in the vasculature, and livers were sectioned as above or the hepatocytes were isolated.

[4] = cells suspended in ITG passed through mixing chamber with drug in DMSO
[5] = portal vein and celiac artery clamped (occluded blood flow)

| Compound | k ([1]; pH 7.2) | k ([1]; pH 8.5) | increase in 90° light scattering signal intensity [2] | PI positive cells (signal above 100) (Jurkat cells; PI in aqueous solution, no OS, no mixing chamber (control)) [%] | PI positive cells (signal above 100) (Jurkat cells; [4]) [%] | injected PI bound to hepatocyte nucleic acid (hepatocytes) [%] | cells (hepatocytes) PI positive (hepatocytes) | nuclear staining after portal vein injection ([3]; 400 μl into portal vein of liver with MC38 metastases) | PI labeling after portal vein injection [3, 5] | Half-life ([1]; pH 7.2) [s] | Half-life ([1]; pH 7.2, listed as BDMODS-PI (II)) [s] | Half-life ([1]; pH 8.5) [s] | Half-life ([1]; pH 8.5, listed as BDMODS-PI (II)) [s] | PI labeling after portal vein injection ([3]; preserved portal blood flow) | PI labeling after portal vein injection ([3]; preserved portal blood flow, listed as BDMODS-PI) |
| --- | --- | --- | --- | --- | --- | --- | --- | --- | --- | --- | --- | --- | --- | --- | --- |
| CCCCCCCCCCCCNC(=O)CCC(=CCC(=O)O)C(=O)Nc1ccc2c(c1)c(-c1ccccc1)[n+](CCC[N+](C)(CC)CC)c1cc(NC(=O)C(=CCC(=O)O)CCC(=O)NCCCCCCCCCCCC)ccc21.[I-].[I-] [III, 3,8-bis-[2-(2 carboxyethylidene)-4-(dodecarbamoyl)-1-oxo-butylamine] 5-(3,3-diethyl-3-methylammoniumpropyl) 6-phenyl phenanthridinium diiodide] | (5.05 min^−1) | (1.97 min^−1) | maximum two fold increase | – | – | – | – | – | – | – | – | – | – | – | – |
| CC[N+](C)(CC)CCC[n+]1c(-c2ccccc2)c2cc(N)ccc2c2ccc(N)cc21.[I-].[I-] [PI, Propidium iodide, reference compound] | – | – | – | 0.3±0.1 | 8.4±0.6 | 1.2 | approximately 1% | did not result in nuclear staining of any structures | a few labeled cells | – | – | – | – | – | – |
| CCCCCCCCCCCCCCCCCC[Si](C)(C)Nc1ccc2c(c1)c(-c1ccccc1)[n+](CCC[N+](C)(CC)CC)c1cc(N[Si](C)(C)CCCCCCCCCCCCCCCCCC)ccc21.[I-].[I-] [II, 3,8-bis[((dimethyl)octadecylsilazyl)amine] 5-(3,3-diethyl-3-methylammoniumpropyl) 6-phenyl phenanthridinium diiodide] | (3.96 min^−1) | (1.80 min^−1) | maximum two fold increase | – | 99.5±0.1 | 14 | approximately 70% | – | prominent labeling of portal structures and adjacent cells, including hepatocytes, but not of the metastases | 11 | 10.5 | 23 | 23.1 | all metastases were PI-negative | No labeled cells in MC38 metastases |
